In the experiment the test system is Acinetobacter baumannii ATCC17978. The experiment is described as follows: Antimicrobial susceptibility testing: 90% growth inhibitory concentration (IC90) determination, Iso-Sensitest broth. Format: cell-based. The essentials: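 A. baumannii ATCC17978 grown in Iso-Sensitest broth across 10 compound concentrations at 35±2 °C.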
[1] abbreviates: 90% growth inhibitory concentration, Acinetobacter baumannii ATCC17978, Iso-Sensitest broth, OD 600 nm over 16 h, read-out: ATCC17978 IC90.
[2] abbreviates: Acinetobacter baumannii, ATCC17978, 16 h, read-out: ATCC17978 IC90, 90% growth inhibitory concentration, Acinetobacter baumannii ATCC17978, Iso-Sensitest broth, OD 600 nm over 16 h.

Here are results for 23 molecules from patent US20230011869A1 (Hoffmann-La Roche Inc., priority 2018, published 2023).

Structures can show the parent of a compound that is named as a salt. Where two headings read alike, the source gives them in different places.

For the molecule `COc1ccc(-c2cnc3c(Nc4ccc(C(=O)N5CCN(C(=O)C(CCC(=O)O)NC(=O)[C@@H](N)CCCCN)CC5)c(C)c4)nccn23)c(F)c1F` (mixture of isomers) [Example 536, 5-[4-[4-[[3-(2,3-difluoro-4-methoxyphenyl)imidazo[1,2-a]pyrazin-8-yl]amino]-2-methylbenzoyl]piperazin-1-yl]-5-oxo-4-[[rac-(2R)-2,6-diaminohexanoyl]amino]pen-tanoic acid; hydrochloride], under setting [1], the IC90 is 4100 nM.

With `Cc1cc(Nc2nccn3c(-c4ccc(OCC#N)c(F)c4F)cnc23)ccc1C(=O)N1CCC(C(=O)N2CCNC[C@H]2CO)CC1` [Example 492, 2-[2,3-difluoro-4-[8-[4-[4-[(2S)-2-(hydroxymethyl)piperazine-1-carbonyl]piperidine-1-carbonyl]-3-methylanilino]imidazo[1,2-a]pyrazin-3-yl]phenoxy]acetonitrile; for-mic acid], under setting [1], the IC90 was 310 nM.

Turning to `Cc1cc(Nc2nccn3c(-c4ccc(OC(F)F)cc4)cnc23)ccc1C(=O)N1CCN(C(=O)N2CCOC(CN(C)C)C2)CC1` (centres unmarked) [Example 132, [4-[[3-[4-(difluoromethoxy)phenyl]imidazo[1,2-a]pyrazin-8-yl]amino]-2-methyl-phenyl]-[4-[2-[(dimethylamino)methyl]morpholine-4-carbonyl]piperazin-1-yl]methanone], the IC90 under setting [1] was 300 nM.

In the case of `COc1ccc(-c2cnc3c(Nc4ccc(C(=O)N5CCCN(C)CC5)c(C)c4)nccn23)cc1` [Example 383, [4-[[3-(4-methoxyphenyl)imidazo[1,2-a]pyrazin-8-yl]amino]-2-methylphenyl]-(4-methyl-1,4-diazepan-1-yl)methanone], under setting [1], the IC90 was found to be 4300 nM.

Regarding `COc1ccc(-c2cnc3c(Nc4ccc(C(=O)N5CCC(CN)CC5)c(C)c4)nccn23)c(Cl)c1Cl` [Example 113, [4-(aminomethyl)-1-piperidyl]-[4-[[3-(2,3-dichloro-4-methoxy-phenyl)imidazo[1,2-a]pyrazin-8-yl]amino]-2-methyl-phenyl]methanone formate], the IC90 under setting [1] was 280 nM.

With `Cc1cc(Nc2nccn3c(-c4ccc(OCC5CC5)c(F)c4)cnc23)ccc1C(=O)N1CCC(CN)CC1` [Example 118, (4-(aminomethyl)piperidin-1-yl)(4-((3-(4-(cyclopropylmethoxy)-3-fluorophenyl)imidazo[1,2-a]pyrazin-8-yl)amino)-2-methylphenyl)methanone], under setting [1], the IC90 worked out at 940 nM.

With `Cc1cc(Nc2nccn3c(-c4ccc(OC(F)F)cc4)cnc23)ccc1C(=O)N1CCN(C(=O)CN)CC1` [Example 259, 2-amino-1-[4-[4-[[3-[4-(difluoromethoxy)phenyl]imi-dazo[1,2-a]pryazin-8-yl]amino]-2-methylbenzoyl]piperazin-1-yl]ethanone; formic acid], the IC90 (read-out: ATCC17978 IC90, 90% growth inhibitory concentration, Acinetobacter baumannii ATCC17978, Iso-Sensitest broth, OD 600 nm over 16 h) came out at 890 nM.

On to `CCc1cc(Nc2nccn3c(-c4ccc(OC(C)C#N)c(F)c4F)cnc23)ccc1C(=O)N1CCN(CCN(C)C)CC1` (centres unmarked) [Example 557, 2-(4-(8-((4-(4-(2-(dimethylamino)ethyl)piperazine-1-carbonyl)-3-ethylphenyl)amino)imidazo[1,2-a]pyrazin-3-yl)-2,3-difluorophenoxy)propanenitrile], for which the IC90 under setting [2] was determined as 694 nM.

`Cc1cc(Nc2nccn3c(-c4ccc(OC(F)F)cc4)cnc23)ccc1C(=O)N1CCC(C(=O)NC[C@@H]2CNC(=O)O2)CC1` [Example 548, (R)-1-(4-((3-(4-(difluoromethoxy)phenyl)imidazo [1,2-a]pyrazin-8-yl)amino)-2-methylbenzoyl)-N-((2-oxooxazolidin-5-yl)methyl)piperidine-4-carboxamide]: under setting [2], the IC90 is 203 nM.

Take `CCOc1ccc(-c2cnc3c(Nc4ccc(C(=O)N5CCC(CN)CC5)c(C)c4)nccn23)c(F)c1Cl` [Example 110, (4-(aminomethyl)piperidin-1-yl)(4-((3-(3-chloro-4-ethoxy-2-fluorophenyl)imidazo[1,2-a]pyrazin-8-yl)amino)-2-methylphenyl)methanone formate]: under setting [1], the IC90 is 420 nM.

On to `Cc1cc(Nc2nccn3c(-c4ccc(OC(F)F)cc4)cnc23)ccc1C(=O)N1CCN(C(=O)[C@H]2[C@@H]3CNC[C@@H]32)CC1` [Example 319, [4-[[3-[4-(difluoromethoxy)phenyl]imi-dazo[1,2-a]pyrazin-8-yl]amino]-2-methylphenyl]-[4-[rac-(1R,5S)-3-azabicyclo[3.1.0]hexane-6-carbonyl]piperazin-1-yl]methanone; hydrochloride], for which the IC90 under setting [2] worked out at 260 nM.

As for `Cc1cc(Nc2nccn3c(-c4ccc(OC(F)F)cc4)cnc23)ccc1C(=O)N1CCN(C(=O)N2CCN[C@@H](C(=O)O)C2)CC1` [Example 445, (2R)-4-[4-[4-[[3-[4-(difluoromethoxy)phenyl]imi-dazo[1,2-a]pyrazin-8-yl]amino]-2-methylbenzoyl]piperazine-1-carbonyl]piperazine-2-carboxylic acid; hydrochloride], the IC90 under setting [2] was found to be 1900 nM.

In the case of `Cc1cc(Nc2nccn3c(-c4ccc(OC(F)F)cc4)cnc23)ccc1C(=O)N1CCC(C(=O)N2C[C@H](O)[C@@H](O)[C@@H](O)[C@H]2CO)CC1` [Example 270, [4-[[3-[4-(difluoromethoxy)phenyl]imi-dazo[1,2-a]pyrazin-8-yl]amino]-2-methylphenyl]-[4-[(2R,3S,4R,5S)-3,4,5-trihydroxy-2-(hydroxymethyl)piperidine-1-carbonyl]piperidin-1-yl]methanone], the IC90 under setting [2] was 2000 nM.

In the case of `Cc1cc(Nc2nccn3c(-c4ccc(OC(F)F)cc4)cnc23)ccc1C(=O)N1CCN(C(=O)C2(N)CCNCC2)CC1` [Example 509, [4-(4-aminopiperidine-4-carbonyl)piperazin-1-yl]-[4-[[3-[4-(difluoromethoxy)phenyl]imi-dazo[1,2-a]pyrazin-8-yl]amino]-2-methylphenyl]methanone; hy-drochloride], the IC90 under setting [2] is 540 nM.

With `CCC[C@@H](N)C(=O)N1CCN(C(=O)c2ccc(Nc3nccn4c(-c5ccc(OC(F)F)cc5)cnc34)cc2C)CC1` [Example 342, (2R)-2-amino-1-[4-[4-[[3-[4-(difluoromethoxy)phenyl]imi-dazo[1,2-a]pyrazin-8-yl]amino]-2-methylbenzoyl]piperazin-1-yl]pentan-1-one; hydrochloride], under setting [2], the IC90 came to 550 nM.

For `Cc1cc(Nc2nccn3c(-c4ccc(OC(F)F)cc4)cnc23)ccc1C(=O)N1CCC(CC(=O)O)CC1` [Example 382, 2-[1-[4-[[3-[4-(difluoromethoxy)phenyl]imi-dazo[1,2-a]pyrazin-8-yl]amino]-2-methylbenzoyl]piperidin-4-yl]acetic acid], the IC90 under setting [2] is 3600 nM.

Turning to `COc1ccc(-c2cnc3c(Nc4ccc(C(=O)N5CCC(C(=O)N6C[C@H](CO)[C@@H](O)[C@H](O)C6)CC5)c(C)c4)nccn23)c(F)c1F` [Example 296, [4-[[3-(2,3-difluoro-4-methoxyphenyl)imidazo[1,2-a]pyrazin-8-yl]amino]-2-methylphenyl]-[4-[(3R,4R,5R)-3,4-dihydroxy-5-(hydroxymethyl)piperidine-1-carbonyl]piperidin-1-yl]methanone], the IC90 under setting [1] stood at 180 nM.

`COc1ccc(-c2cnc3c(Nc4ccc(C(=O)N5CCN(C(=O)[C@@H]6C[C@@H](OC(=O)[C@@H](N)CCCNC(=N)N)CN6)CC5)c(C)c4)nccn23)c(F)c1F` [Example 550, [(3R,5S)-5-[4-[4-[[3-(2,3-difluoro-4-methoxy-phenyl)imidazo[1,2-a]pyrazin-8-yl]amino]-2-methyl-benzoyl]piperazine-1-carbonyl]pyrrolidin-3-yl] 2-amino-5-guanidino-pentanoate formate]: the IC90 under setting [2] worked out at 153 nM.

Consider `Cc1cc(Nc2nccn3c(-c4ccc(OC(F)F)cc4)cnc23)ccc1C(=O)N1CCC(C(N)=O)(N2CCN(C)CC2)CC1` [Example 375, 1-[4-[[3-[4-(difluoromethoxy)phenyl]imi-dazo[1,2-a]pyrazin-8-yl]amino]-2-methylbenzoyl]-4-(4-methylpiperazin-1-yl)piperidine-4-carboxamide], for which the IC90 under setting [2] is 2000 nM.

For the molecule `Cc1cc(Nc2nccn3c(-c4cc(F)c(OCC#N)cc4Cl)cnc23)ccc1C(=O)N1CCC(C(=O)N2CCNC(CO)C2)CC1` (centres unmarked) [Example 32, 2-[5-chloro-2-fluoro-4-[8-[4-[4-[3-(hydroxymethyl)piperazine-1-carbonyl]piperidine-1-carbonyl]-3-methyl-anilino]imidazo[1,2-a]pyrazin-3-yl]phenoxy]acetonitrile;2,2,2-trifluoroacetic acid], under setting [1], the IC90 came out at 210 nM.

In the case of `Cc1cc(Nc2nccn3c(-c4ccc(OC(F)F)cc4)cnc23)ccc1C(=O)N1CCN(C(=O)C(O)CN)CC1` (centres unmarked) [Example 255, 3-amino-1-[4-[4-[[3-[4-(difluoromethoxy)phenyl]imi-dazo[1,2-a]pyrazin-8-yl]amino]-2-methylbenzoyl]piperazin-1-yl]-2-hydroxypropan-2-one; 2,2,2-trifluoroacetc acid], under setting [1], the IC90 was determined as 730 nM.

With `Cc1cc(Nc2nccn3c(-c4ccc(OC(F)F)cc4)cnc23)ccc1C(=O)N1CCN(C(=O)[C@H]2C[C@H](O)CN2)CC1` [Example 529, [4-[[3-[4-(difluoromethoxy)phenyl]imi-dazo[1,2-a]pyrazin-8-yl]amino]-2-methylphenyl]-[4-[(2R,4S)-4-hydroxypyrrolidine-2-carbonyl]piperazin-1-yl]methanone; hydrochloride], the IC90 under setting [2] came out at 690 nM.

Regarding `Cc1cc(Nc2nccn3c(-c4ccc(OCC#N)c(F)c4F)cnc23)ccc1C(=O)N1CCN(C(=O)N2CCN[C@@H](C(=O)O)C2)CC1` [Example 450, (2R)-4-[4-[4-[[3-[4-(cyanomethoxy)-2,3-difluorophenyl]imidazo[1,2-a]pyrazin-8-yl]amino]-2-methylbenzoyl]piperazine-1-carbonyl]piperazine-2-carboxylic acid], the IC90 under setting [1] is 2400 nM.
